Like-named read-outs stand apart in the source and are kept apart here. Side-chain parts run from the residue outwards. [ ]: non-standard residue; d: D form. The star is where a group is joined. C20 diacid = O=C(O)CCCCCCCCCCCCCCCCCCC(=O)*; Nle = CCCC[C@H](N)C(=O)O; AEEA = NCCOCCOCC(=O)O; Aib = CC(C)(N)C(=O)O
What was measured:
[1] = ThT fibrillation assay (physical stability); type: physicochemical; details: 250 μM, pH 7.4, 37° C., 45 hours of incubation
Protocol: The Thioflavin T assay was performed as outlined in Schlein (2017), AAPS J, 19(2), 397-408.
This has traditionally been measured by visual inspection of the sample. However, that kind of measurement is very cumbersome and depending on the observer. Therefore, the application of a small molecule indicator probe is much more advantageous. Thioflavin T (ThT) is such a probe and has a distinct fluorescence signature when binding to fibrils [Naiki et al. (1989) Anal. Biochem. 177, 244-249; LeVine (1999) Methods. Enzymol. 309, 274-284].
The time course for fibril formation can be described by a sigmoidal curve with the following expression [Nielsen et al. (2001) Biochemistry 40, 6036-6046]:
Here, F is the ThT fluorescence at the time t. The constant t0 is the time needed to reach 50% of maximum fluorescence. The two important parameters describing fibril formation are the lag-time calculated by t0−2τ and the apparent rate constant kapp 1/τ.
Few of those intermediates nucleate to form a template onto which further intermediates may assembly and the fibrillation proceeds. The lag-time corresponds to the interval in which the critical mass of nucleus is built up and the apparent rate constant is the rate with which the fibril itself is formed.
Samples are prepared freshly before each assay. The drug substance was solved with 250 μM of the GIP derivative in 8 mM phosphate, 14 mg/mL propylene glycol, 58 mM phenol, pH 7.4. The pH of the sample was adjusted to the desired value using appropriate amounts of concentrated NaOH and HCl. Thioflavin T was added to the samples from a stock solution in H2O to a final concentration of 1 μM.
Sample aliquots of 200 μl were placed in each well of a 96 well microtiter plate (Packard OptiPlate™-96, white polystyrene). Four replica of each sample (corresponding to one test condition) was placed in one column of wells. The plate was sealed with Scotch Pad (Qiagen).
Incubation, shaking and measurement of the ThT fluorescence emission were done in a Fluoroskan Ascent FL fluorescence platereader (Thermo Labsystems). […] Fluorescence measurement was done using excitation through a 444 nm filter and measurement of emission through a 485 nm filter.
Each run was initiated by incubating the plate at the assay temperature for 10 min. The plate was measured every 20 minutes for a desired period of time. Between each measurement, the plate was shaken and heated as described.
After completion of the ThT assay the replica of each sample was pooled and centrifuged at 20000 rpm for 30 minutes at 18° C. The supernatant was filtered through a 0.22 μm filter and an aliquot was transferred to a HPLC vial. The concentration of the filtered sample relative to the initial sample (in percentage) was reported as the recovery.
The measurement points were saved in Microsoft Excel format for further processing and curve drawing and fitting was performed using GraphPad Prism. […] The data points were a mean of the four replica and shown with standard deviation error bars. Only data obtained in the same experiment (i.e. samples on the same plate) were presented in the same graph ensuring a relative measure of fibrillation between experiments.
The data set may be fitted to Eq. (1).

[2] = Chemical stability: HMWP formation by SEC-MS; type: physicochemical; details: 37° C., 4 weeks, 250 μM, pH 7.4
Protocol: The aim of this study is to determine the chemical stability of GIP derivative compositions. As a measure of stability of the GIP derivative composition, the formation of high molecular weight peptide formation (% HMWP) as a function of time was analysed by size-exclusion chromatography (SEC-MS). Further, the purity loss of the GIP derivative compositions was measured by LCMS. Samples for chemical stability assays were freshly prepared before each assay. […] The pH of the sample was adjusted to the desired value using appropriate amounts of concentrated NaOH and HCl. […] Formation of covalent oligomers (HMWPs) was analysed and identified by a SEC-MS method. […] The LC system was coupled to both a TUV detector operated at 215 nm, 10 Hz and a high resolution QToF mass spectrometer from Waters (Synapt G2S) operated in positive ion mode and m/z range of 100 to 4000 with normal resolution setting. Lock mass correction against Leu-Enkephalin was done every 31 sec. Spectra were processed in MassLynx version 4.1 and MaxEnt deconvoluted.

[3] = Chemical stability: purity loss by LCMS; type: physicochemical; details: 37° C., 4 weeks, 250 μM, pH 7.4
Protocol: The aim of this study is to determine the chemical stability of GIP derivative compositions. As a measure of stability of the GIP derivative composition, the formation of high molecular weight peptide formation (% HMWP) as a function of time was analysed by size-exclusion chromatography (SEC-MS). Further, the purity loss of the GIP derivative compositions was measured by LCMS. Samples for chemical stability assays were freshly prepared before each assay. […] The pH of the sample was adjusted to the desired value using appropriate amounts of concentrated NaOH and HCl. […] The column oven was kept at 55° C. […] The solvents were pumped from a binary solvent manager system and mixed on the high pressure side in a mixer with a volume of 50 μl. The gradient and flow can be seen in table 4: [table] A Flow-through-needle auto sampler at 8° C. was used to inject 1 μl of each sample. The effluent passed through a tunable UV detector (TUV) tuned to 215 nm. The outlet from the UV detector passed to the electrospray source of the mass spectrometer. The capillary was held at 3 kV and dry nitrogen gas was purged at a flow of 750 I/h and a temperature of 250° C. The source block was kept at 120° C. and the large bore cone was flushed with nitrogen at 50 I/h with standard electrode potentials on the rest of the instrument. The MS was operated in high resolution mode with a nominal resolution of 35000. The ToF analyser was operated in ADC mode with an m/z window from 100-2000.

[4] = cited from earlier work
[5] = type: physicochemical; details: pH 7.4

Row | Compound | ThT Assay Lag time [1] [h] | HMWP formation (%/month) [2] [%/month] | Purity loss (%/month) [3] [%/month] | half-life of hGIP(1-42) measured in man ([4]; Deacon et al., J. Clin. Endocrinol. & Metab.) [min] | half-life of hGIP(1-42) measured in man ([4]; Meier et al., Diabetes) | solubility at given pH [5]
1 | CC[C@H](C)[C@H](NC(=O)[C@H](CO)NC(=O)[C@H](Cc1ccc(O)cc1)NC(=O)[C@H](CC(=O)O)NC(=O)[C@H](CO)NC(=O)[C@@H](NC(=O)[C@H](Cc1ccccc1)NC(=O)[C@@H](NC(=O)CNC(=O)[C@H](CCC(=O)O)NC(=O)[C@H](C)NC(=O)[C@@H](N)Cc1ccc(O)cc1)[C@@H](C)O)[C@@H](C)CC)C(=O)N[C@@H](C)C(=O)N[C@@H](CCSC)C(=O)N[C@@H](CC(=O)O)C(=O)N[C@@H](CCCCN)C(=O)N[C@H](C(=O)N[C@@H](Cc1c[nH]cn1)C(=O)N[C@@H](CCC(N)=O)C(=O)N[C@@H](CCC(N)=O)C(=O)N[C@@H](CC(=O)O)C(=O)N[C@@H](Cc1ccccc1)C(=O)N[C@H](C(=O)N[C@@H](CC(N)=O)C(=O)N[C@@H](Cc1c[nH]c2ccccc12)C(=O)N[C@@H](CC(C)C)C(=O)N[C@@H](CC(C)C)C(=O)N[C@@H](C)C(=O)N[C@@H](CCC(N)=O)C(=O)N[C@@H](CCCCN)C(=O)NCC(=O)N[C@@H](CCCCN)C(=O)N[C@@H](CCCCN)C(=O)N[C@@H](CC(N)=O)C(=O)N[C@@H](CC(=O)O)C(=O)N[C@@H](Cc1c[nH]c2ccccc12)C(=O)N[C@@H](CCCCN)C(=O)N[C@@H](Cc1c[nH]cn1)C(=O)N[C@@H](CC(N)=O)C(=O)N[C@H](C(=O)N[C@H](C(=O)N[C@@H](CCC(N)=O)C(=O)O)[C@@H](C)O)[C@@H](C)CC)C(C)C)[C@@H](C)CC [hGIP(1-42), reference compound] | 0.33 | 2.0 | 73.1 | ~7 | about 5 min | –
2 | N{1}-acetyl,N{Epsilon-24}-[2-[2-[2-[[2-[2-[2-[[4-[(19-carboxynonadecanoylamino)methyl]cyclohexanecarbonyl]amino]ethoxy]ethoxy]acetyl]amino]ethoxy]ethoxy]acetyl]-[D-Tyr1,Aib2,Nle14,Arg18,Lys24,Pro31]-hGIP(1-31) amide (Ac-[dY][Aib]EGTFISDYSIA[Nle]DKIRQQDFVK([AEEA-AEEA-4‑(aminomethyl)cyclohexanecarbonyl-C20 diacid])WLLAQKP-NH2) [Compound 44] | – | – | – | – | – | **Compound not soluble at given pH.

Source: patent US10604555B2, “GIP derivatives and uses thereof” (priority 2018, dated 2020)
